pIC50: −log10 of the molar value. Converted amounts (≈) assume the structure as drawn. Read-outs that look alike come from different tables or passages of the source.
Key:
[1] = tested on: Mycobacterium tuberculosis H37Ra ITM-M006710 (ATCC 9431); test: Microplate Alamar Blue Assay (MABA), Mtb H37Ra; assay type: cell-based; conditions: for MIC: Mycobacterium tuberculosis, 120 h, pH 6.6, MABA, Middlebrook 7H9 broth pH 6.6, resazurin after 120 h, read-out: Mtb H37Ra MIC; for antimycobacterial activity (in words): activity refers to Mtb H37Ra from the primary screening if not otherwise stated
[2] = tested on: Mycobacterium smegmatis DSM 43465 (ATCC 607); test: Microplate Alamar Blue Assay (MABA), M. smegmatis; assay type: cell-based; conditions: Mycolicibacterium smegmatis; MABA, resazurin after 48 h; read-out: M. smegmatis MIC
[3] = tested on: M. aurum DSM 43999 (ATCC 23366); test: Microplate Alamar Blue Assay (MABA), M. aurum; assay type: cell-based; conditions: Mycolicibacterium aurum; MABA, resazurin after 72 h; read-out: M. aurum MIC
[4] = tested on: Staphylococcus aureus subsp. aureus CCM 4223 (ATCC 29213); test: Antibacterial microdilution broth (EUCAST), SA; assay type: cell-based; conditions: Staphylococcus aureus; read after 24 h; read-out: SA MIC
[5] = tested on: Staphylococcus aureus subsp. aureus methicillin-resistant (MRSA) CCM 4750 (ATCC 43300); test: Antibacterial microdilution broth (EUCAST), MRSA; assay type: cell-based; conditions: Staphylococcus aureus; read after 24 h; read-out: MRSA MIC
[6] = tested on: Staphylococcus epidermidis CCM 4418 (ATCC 12228); test: Antibacterial microdilution broth (EUCAST), SE; assay type: cell-based; conditions: read after 24 h, read-out: SE MIC
[7] = tested on: Enterococcus faecalis CCM 4224 (ATCC 29212); test: Antibacterial microdilution broth (EUCAST), EF; assay type: cell-based; conditions: Enterococcus faecalis; read after 24 h; read-out: EF MIC
[8] = tested on: Escherichia coli CCM 3954 (ATCC 25922); test: Antibacterial microdilution broth (EUCAST), EC; assay type: cell-based; conditions: Escherichia coli; read after 24 h; read-out: EC MIC
[9] = tested on: Acinetobacter baumannii DSM 30007 (ATCC 19606); test: Antibacterial microdilution broth (EUCAST), ACI; assay type: cell-based; conditions: Acinetobacter baumannii; read after 24 h; read-out: ACI MIC
[10] = tested on: Pseudomonas aeruginosa CCM 3955 (ATCC 27853); test: Antibacterial microdilution broth (EUCAST), PA; assay type: cell-based; conditions: Pseudomonas aeruginosa; read after 24 h; read-out: PA MIC
[11] = tested on: Candida albicans CCM 8320 (ATCC 24433); test: Antifungal microdilution broth (EUCAST), CA; assay type: cell-based; conditions: Candida albicans; read after 24 h; read-out: CA MIC
[12] = tested on: Candida krusei CCM 8271 (ATCC 6258); test: Antifungal microdilution broth (EUCAST), CK; assay type: cell-based; conditions: Pichia kudriavzevii; read after 24 h; read-out: CK MIC
[13] = tested on: Candida parapsilosis CCM 8260 (ATCC 22019); test: Antifungal microdilution broth (EUCAST), CP; assay type: cell-based; conditions: Lodderomyces parapsilosis; read after 24 h; read-out: CP MIC
[14] = tested on: Candida tropicalis CCM 8264 (ATCC 750); test: Antifungal microdilution broth (EUCAST), CT; assay type: cell-based; conditions: Candida tropicalis; read after 24 h; read-out: CT MIC
[15] = tested on: Aspergillus fumigatus ATCC 204305; test: Antifungal microdilution broth (EUCAST), AF; assay type: cell-based; conditions: Aspergillus fumigatus, ATCC204305; read after 24 h; read-out: AF MIC
[16] = tested on: Aspergillus flavus CCM 8363; test: Antifungal microdilution broth (EUCAST), AFla; assay type: cell-based; conditions: Aspergillus flavus, CCM8363; read after 24 h; read-out: AFla MIC
[17] = tested on: Lichtheimia corymbifera CCM 8077; test: Antifungal microdilution broth (EUCAST), LC; assay type: cell-based; conditions: Lichtheimia corymbifera, CCM8077; read after 24 h; read-out: LC MIC
[18] = tested on: Trichophyton interdigitale CCM 8377 (ATCC 9533); test: Antifungal microdilution broth (EUCAST), TI; assay type: cell-based; conditions: Trichophyton interdigitale, 72 h, read-out: TI MIC
[19] = tested on: HepG2 human hepatocellular carcinoma cells; test: In vitro HepG2 cytotoxicity (CellTiter 96); conditions: * limit = highest evaluated concentration (precipitation in medium), ** over the 1000 µM limit
[20] = tested on: Klebsiella pneumoniae CCM 4415 (ATCC 10031); test: Antibacterial microdilution broth (EUCAST), KP; conditions: read after 24 h
[21] = Homo sapiens, HepG2, 24 h, read-out: HepG2 IC50, 24 h incubation

| Compound | MIC [1] [µg/mL] | MIC [2] [µg/mL] | MIC [3] [µg/mL] | MIC [4] [µM] | MIC [5] [µM] | MIC [6] [µM] | MIC [7] [µM] | MIC [8] [µM] | MIC [9] [µM] | MIC [10] [µM] | MIC [11] [µM] | MIC [12] [µM] | MIC [13] [µM] | MIC [14] [µM] | MIC [15] [µM] | MIC [16] [µM] | MIC [17] [µM] | MIC [18] [µM] | melting point [°C] | KP MIC [20] [µM] | other results |
| --- | --- | --- | --- | --- | --- | --- | --- | --- | --- | --- | --- | --- | --- | --- | --- | --- | --- | --- | --- | --- | --- |
| Cc1ccc(C(=O)Nc2nccnc2C(=O)N(C)C)cc1 [Compound 36] | ≥ 500 | ≥ 500 | ≥ 500 | > 125 | > 125 | > 125 | > 125 | > 125 | > 125 | > 125 | > 125 | > 125 | > 125 | > 125 | > 125 | > 125 | > 125 | > 125 | 188.7 to 189.5 | > 125 | antimycobacterial activity (in words) [1]: inactive; pIC50 [19, 21]: < 3.00 |
| O=c1[nH]c(-c2ccc(F)cc2)nc2nccnc12 [Compound 41] | ≥ 500 | ≥ 500 | ≥ 500 | > 125 | > 125 | > 125 | > 125 | > 125 | > 125 | > 125 | > 125 | > 125 | > 125 | > 125 | > 125 | > 125 | > 125 | > 125 | 277 to 279.5 | > 125 | pIC50 [19, 21]: < 3.00 |
| NC(=O)c1nccnc1NC(=O)c1ccccc1C(F)(F)F [Compound 20] | 500 (≈ 1610 µM) | ≥ 500 | ≥ 500 | > 500 | > 500 | > 500 | > 500 | > 500 | > 500 | > 500 | > 500 | > 500 | > 500 | > 500 | > 500 | > 500 | > 500 | > 500 | 201.5 to 202.4 | > 500 | pIC50 [19, 21]: < 3.60 |
| CNC(=O)c1nccnc1NC(=O)c1ccc(C)cc1 [Compound 33] | 250 (≈ 925 µM) | ≥ 500 | 125 (≈ 462 µM) | > 500 | > 500 | > 500 | > 500 | > 500 | > 500 | > 500 | > 500 | > 500 | > 500 | > 500 | > 500 | > 500 | > 500 | > 500 | 178.4 to 179.5 | > 500 | pIC50 [19, 21]: 3.12; pIC50 ([19]; read-out: HepG2 IC50, 24 h incubation): 3.12 |
| CCCCCCC(=O)Nc1nccnc1C(N)=O [Compound 31] | ≥ 500 | ≥ 500 | ≥ 500 | > 125 | > 125 | > 125 | > 125 | > 125 | > 125 | > 125 | > 125 | > 125 | > 125 | > 125 | > 125 | > 125 | > 125 | > 125 | 131.5 to 132.1 | > 125 | pIC50 [19, 21]: < 3.60 |
| CCc1ccc(C(=O)Nc2nccnc2C(N)=O)cc1 [Compound 5] | ≥ 500 | ≥ 500 | ≥ 500 | > 250 | > 250 | > 250 | > 250 | > 250 | > 250 | > 250 | > 250 | > 250 | > 250 | > 250 | > 250 | > 250 | > 250 | > 250 | 215.5 to 218.5 | > 250 | antimycobacterial activity (in words) [1]: no activity; pIC50 [19, 21]: < 4.00 |
| COc1cccc(C(=O)Nc2nccnc2C(N)=O)c1 [Compound 8] | ≥ 250 | ≥ 250 | ≥ 250 | > 500 | > 500 | > 500 | > 500 | > 500 | > 500 | > 500 | > 500 | > 500 | > 500 | > 500 | > 500 | > 500 | > 500 | > 500 | 221 to 223 | > 500 | pIC50 [19, 21]: < 4.00 |
| COC(=O)c1nccnc1NC(=O)c1ccc(Br)cc1 [Compound 18e] | ≥ 500 | ≥ 500 | ≥ 500 | > 500 | > 500 | > 500 | > 500 | > 500 | > 500 | > 500 | > 500 | > 500 | > 500 | > 500 | > 500 | > 500 | > 500 | > 500 | 195.1 to 197 | > 500 |  |

From paper PMC9687610, “Adenosine-Mimicking Derivatives of 3-Aminopyrazine-2-Carboxamide: Towards Inhibitors of Prolyl-tRNA Synthetase with Antimycobacterial Activity” (Biomolecules, 2022)
